Among the data in US20150005288A1, “SUBSTITUTED PHENYLIMIDAZOPYRAZOLES AND USE THEREOF” (Bayer Intellectual Property GmbH, priority 2012, published 2015) are IC50 values, retold here.

T1 sequence (Q02763 776-1124): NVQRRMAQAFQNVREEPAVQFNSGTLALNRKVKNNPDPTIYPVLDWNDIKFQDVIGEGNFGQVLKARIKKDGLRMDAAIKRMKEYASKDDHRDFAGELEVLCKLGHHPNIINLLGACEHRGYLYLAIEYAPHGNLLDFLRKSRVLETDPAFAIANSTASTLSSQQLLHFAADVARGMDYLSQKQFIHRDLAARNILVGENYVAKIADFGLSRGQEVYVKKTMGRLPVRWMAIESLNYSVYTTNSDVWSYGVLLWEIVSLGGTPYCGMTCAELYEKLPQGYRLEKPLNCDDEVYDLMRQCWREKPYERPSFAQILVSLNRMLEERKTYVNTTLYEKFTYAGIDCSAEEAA

This assay concerns the target T1, intracellular domain of human Tie2 (GST fusion protein) (Homo sapiens, UniProt Q02763).
T1 construct: intracellular domain of human Tie2 (amino acids 776-1124); made in house; host or cells: Baculovirus-infected insect cells (Hi5)
Briefly: Tie2 kinase assay (Tie2-TR-FRET). It counts as biochemical. Conditions: ATP concentration 1 mM, in some cases means of several independent determinations. A digest of the protocol: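 High ATP (1 mM final) with 1 μM biotin-peptide substrate; reaction 60 min at 22 °C after 15 min compound pre-binding to GST-Tie2 (aa 776-1124) in HEPES pH 7 with Mg/Mn. Phosphopeptide detected by TR-FRET emission ratio 665/620 nm. IC50 from 4-parameter fit over 20 μM to 0.073 nM, duplicates.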
(Time-resolved FRET reads energy transfer from a long-lived donor to a nearby acceptor.)
As for `Cc1cc(C)c(-n2ccn3nc(-c4cccnn4)cc23)cc1NC(=O)c1cc(Br)cc(S(F)(F)(F)(F)F)c1` [Example 170, 3-Bromo-N-{2,4-dimethyl-5-[6-(pyridazin-3-yl)-1H-imidazo[1,2-b]pyrazol-1-yl]phenyl}-5-(pentafluoro-λ^6-sulphanyl)benzamide], the IC50 (as a rule, the concentration that inhibits the measured activity by half) turned out to be 1.2 nM.

For the compound `COC1CN(c2cc(C(=O)Nc3cc(-n4ccn5nc(-c6cccnc6)cc45)c(C)cc3C)cc(S(F)(F)(F)(F)F)c2)C1` [Example 146, N-{2,4-Dimethyl-5-[6-(pyridin-3-yl)-1H-imidazo[1,2-b]pyrazol-1-yl]phenyl}-3-(3-methoxyazetidin-1-yl)-5-(pentafluoro-λ^6-sulphanyl)benzamide], the IC50 came out at 0.7 nM.

Turning to `Cc1ccc(NC(=O)c2cc(OC3CNC3)cc(S(F)(F)(F)(F)F)c2)cc1-n1ccn2nc(-c3cccnc3)cc12` [Example 24, 3-(Azetidin-3-yloxy)-N-{4-methyl-3-[6-(pyridin-3-yl)-1H-imidazo[1,2-b]pyrazol-1-yl]phenyl}-5-(pentafluoro-λ^6-sulphanyl)benzamide], 0.8 nM corresponded to half-maximal inhibition (IC50).

Compound `O=C(Nc1ccc(F)c(-n2ccn3nc(-c4cccnc4)cc23)c1)c1cccc(S(F)(F)(F)(F)F)c1` [Example 70, N-{4-Fluoro-5-[6-(pyridin-3-yl)-1H-imidazo[1,2-b]pyrazol-1-yl]phenyl}-3-(pentafluoro-λ^6-sulphanyl)benzamide] had an IC50 of 105 nM.

In the case of `Cc1cc(C)c(-n2ccn3nc(-c4cccnc4)cc23)cc1NC(=O)c1cccc(OC(C)(C)C)c1` [Example 134, 3-tert-Butoxy-N-{2,4-dimethyl-5-[6-(pyridin-3-yl)-1H-imidazo[1,2-b]pyrazol-1-yl]phenyl}-benzamide], the midpoint of inhibition, the IC50, lay at 55 nM.

Regarding `Cc1ccc(NC(=O)c2cc(CN3CC[C@H](O)C3)cc(S(F)(F)(F)(F)F)c2)cc1-n1ccn2nc(-c3cccnc3)cc12` [Example 34, 3-{[(3S)-3-Hydroxypyrrolidin-1-yl]methyl}-N-{4-methyl-3-[6-(pyridin-3-yl)-1H-imidazo[1,2-b]-pyrazol-1-yl]phenyl}-5-(pentafluoro-λ^6-sulphanyl)benzamide], the midpoint of inhibition, the IC50, lay at 2.1 nM.

As for `Cc1ccc(NC(=O)c2cc(Cl)cc(S(F)(F)(F)(F)F)c2)cc1-n1ccn2nc(-c3cncs3)cc12` [Example 174, 3-Chloro-N-{4-methyl-3-[6-(1,3-thiazol-5-yl)-1H-imidazo[1,2-b]pyrazol-1-yl]phenyl}-5-(pentafluoro-λ^6-sulphanyl)benzamide], the IC50 was 2.8 nM.

The compound `Cc1cc(C(=O)Nc2ccc(C)c(-n3ccn4nc(-c5cccnc5)cc34)c2)cc(S(N)(=O)=O)c1` [Example 124, 3-Methyl-N-{4-methyl-3-[6-(pyridin-3-yl)-1H-imidazo[1,2-b]pyrazol-1-yl]phenyl}-5-sulphamoyl-benzamide] displayed a half-maximal inhibitory concentration (IC50) of 297 nM.

For the compound `Cc1ccc(NC(=O)c2cccc(S(F)(F)(F)(F)F)c2)cc1-n1ccn2nc(-c3cccnc3)c(F)c12` [Example 158, N-{3-[7-Fluoro-6-(pyridin-3-yl)-1H-imidazo[1,2-b]pyrazol-1-yl]-4-methylphenyl}-3-(pentafluoro-λ^6-sulphanyl)benzamide], half-maximal inhibition (IC50) required 58 nM.

With `Cc1ccc(NC(=O)c2cccc(S(F)(F)(F)(F)F)c2)cc1-n1ccn2nc(-c3cncs3)cc12` [Example 172, N-{4-Methyl-3-[6-(1,3-thiazol-5-yl)-1H-imidazo[1,2-b]pyrazol-1-yl]phenyl}-3-(pentafluoro-λ^6-sulphanyl)benzamide], the IC50 was 7.8 nM.

`Cc1ccc(NC(=O)c2cc(C(C)(C)C)cc(C(C)(C)O)c2)cc1-n1ccn2nc(-c3cccnc3)cc12` [Example 49, 3-tert-Butyl-5-(2-hydroxypropan-2-yl)-N-{4-methyl-3-[6-(pyridin-3-yl)-1H-imidazo[1,2-b]-pyrazol-1-yl]phenyl}benzamide] registered an IC50 of 0.3 nM.

Turning to `Cc1ccc(NC(=O)c2cc(C(F)(F)F)cc(S(N)(=O)=O)c2)cc1-n1ccn2nc(-c3cccnc3)cc12` [Example 122, N-{4-Methyl-3-[6-(pyridin-3-yl)-1H-imidazo[1,2-b]pyrazol-1-yl]phenyl}-3-sulphamoyl-5-(trifluoromethyl)benzamide], the IC50 came out at 3.9 nM.

`Cc1ccc(NC(=O)c2cc(C(C)(C)O)cc(S(F)(F)(F)(F)F)c2)cc1-n1ccn2nc(-c3cccnc3)c(F)c12` [Example 160, N-{3-[7-Fluoro-6-(pyridin-3-yl)-1H-imidazo[1,2-b]pyrazol-1-yl]-4-methylphenyl}-3-(2-hydroxypropan-2-yl)-5-(pentafluoro-λ^6-sulphanyl)benzamide] had an IC50 of 1 nM.

The compound `Cc1ccc(NC(=O)c2cc(S(C)(=O)=O)cc(S(F)(F)(F)(F)F)c2)cc1-n1ccn2nc(-c3cncs3)cc12` [Example 176, 3-(Methylsulphonyl)-N-{4-methyl-3-[6-(1,3-thiazol-5-yl)-1H-imidazo[1,2-b]pyrazol-1-yl]phenyl}-5-(pentafluoro-λ^6-sulphanyl)benzamide] came in with an IC50 of 0.8 nM.

In turn, `Cc1ccc(NC(=O)c2cc(N3CCNCC3)cc(S(F)(F)(F)(F)F)c2)cc1-n1ccn2nc(-c3cn[nH]c3)cc12` [Example 1, N-{4-Methyl-3-[6-(1H-pyrazol-4-yl)-1H-imidazo[1,2-b]pyrazol-1-yl]phenyl}-3-(pentafluoro-λ^6-sulphanyl)-5-(piperazin-1-yl)benzamide] yielded an IC50 of 0.3 nM.

Compound `Cc1ccc(NC(=O)c2cc(N3CCN(C)CC3)cc(S(F)(F)(F)(F)F)c2)cc1-n1cc(C)n2nc(-c3cn[nH]c3)cc12` [Example 11, N-{4-Methyl-3-[3-methyl-6-(1H-pyrazol-4-yl)-1H-imidazo[1,2-b]pyrazol-1-yl]phenyl}-3-(4-methylpiperazin-1-yl)-5-(pentafluoro-λ^6-sulphanyl)benzamide] gave an IC50 of 0.3 nM.

The compound `Cc1ccc(NC(=O)c2cc(F)cc(S(F)(F)(F)(F)F)c2)cc1-n1ccn2nc(-c3cncs3)cc12` [Example 173, 3-Fluoro-N-{4-methyl-3-[6-(1,3-thiazol-5-yl)-1H-imidazo[1,2-b]pyrazol-1-yl]phenyl}-5-(pentafluoro-λ^6-sulphanyl)benzamide] registered an IC50 of 9.3 nM.

In the case of `Cc1ccc(NC(=O)c2cccc(N3CCCC3)c2)cc1-n1ccn2nc(-c3cccnc3)cc12` [Example 56, N-{4-Methyl-3-[6-(pyridin-3-yl)-1H-imidazo[1,2-b]pyrazol-1-yl]phenyl}-3-(pyrrolidin-1-yl)-benzamide], the IC50 turned out to be 52 nM.

In turn, `N#Cc1cc(C(=O)Nc2ccc(C(F)(F)F)c(-n3ccn4nc(-c5cccnc5)cc34)c2)cc(S(F)(F)(F)(F)F)c1` [Example 95, 3-Cyano-5-(pentafluoro-λ^6-sulphanyl)-N-{3-[6-(pyridin-3-yl)-1H-imidazo[1,2-b]pyrazol-1-yl]-4-(trifluoromethyl)phenyl}benzamide] yielded an IC50 of 350 nM.

For the compound `Cc1ccc(NC(=O)c2cc(-n3ccnc3C)cc(C(F)(F)F)c2)cc1-n1cc(C)n2nc(-c3cn[nH]c3)cc12` [Example 14, 3-(2-Methyl-1H-imidazol-1-yl)-N-{4-methyl-3-[3-methyl-6-(1H-pyrazol-4-yl)-1H-imidazo[1,2-b]-pyrazol-1-yl]phenyl}-5-(trifluoromethyl)benzamide], the IC50 came to 0.4 nM.
